The source of these data is patent US11779582B2, “Composition for preventing or treating metastatic ovarian cancer, endometrial cancer or breast cancer” (LEMONEX INC., priority 2017, dated 2023).

Format in all cases: cell-based
In series [1] the test system is HEC1B endometrial cancer cell line (3D sphere culture). The series is described as follows: morphological analysis and crystal violet staining, 3D sphere culture. The method, then:
(§1) With respect to the cancer cell lines listed in Table 1 below, synergistic effects of paclitaxel and BGJ398 were further examined. According to the same procedures as described in the previous examples, each cell line was divided and cultured by 2D monolayer culture and 3D sphere culture, respectively. Then, a change due to BGJ398 administration was analyzed through morphological analysis and crystal violet staining assay. All cell lines were purchased from ATCC and used in the present experiments, and detailed information thereof are shown in Table 3 below.
(§2) With respect to the cancer cell lines listed in Table 2 below, synergistic effects of paclitaxel and BGJ398 were further examined. According to the same procedures as described in the previous examples, each cell line was divided and cultured by 2D monolayer culture and 3D sphere culture, respectively. Then, a change due to administration of BGJ398 alone or in combination with paclitaxel was analyzed through morphological analysis.

Series [2] concerns Hs578T breast cancer cell line (3D sphere culture). The series is described as above. The method, then:
as §1, §2

In series [3] the test system is Hs578T breast cancer cell line (2D monolayer culture). Kind of series: crystal violet staining and morphology, paclitaxel in combination with BGJ398. The method, then: as §2
Series [4] deals with HEC1B endometrial cancer cell line (2D monolayer culture). The series is described as above. The method, then: as §2
Series [5] concerns SKOV3-TR ovarian cancer cells. The series is described as follows: FACS assay of DNA content (propidium iodide), Sub-G1. The method, then: More particularly, the degree of cell apoptosis can be confirmed when DNA content in the cell is treated by propidium iodide (PI) staining and is assessed by FACS. If cell apoptosis occurs, genes in the cells are disrupted and Sub-Gi region below G1 is increased.
FIG. 23 graphically illustrates FACS results, which were divided by a cell cycle in the same experiments described above. Referring to this figure, it can be seen that the treatment using 2.5 μM BGJ398 in combination with 50 nM paclitaxel increases Gub-G1 cells in SKOV-TR cells by about 2.5 times, compared to 50 nM paclitaxel alone, thereby improving anticancer activity.
On the technique in general: A flow cytometer gives signals particle by particle.

Series [6] relates to monolayer cultured SKOV3ip1 ovarian cancer cells. The series is described as follows: crystal violet cell viability, 2D monolayer culture. The method, then:
2D monolayer culture was implemented in the following manner: cells were cultured at 37° C., 5% CO2 humidified atmosphere using RPMI 1640 medium (Corning, NY, USA) supplemented with 10% fetal bovine serum (Gibco, NY, USA) and 10 U/ml penicillin/streptomycin.
Crystal violet staining was implemented to determine the cell viability in the monolayer cultured cell model and sphere cultured cell model. In order to implement the crystal violet staining in the monolayer culture model, SKOV3ip1 cells (5×10^4) were dispensed in commercial 24-well plates and incubated overnight. Thereafter, the drug was dispensed with a desired concentration for experiment into each well, followed by further incubation for 72 hours. 300 μl of 0.2% crystal violet solution was added to each well, followed by further incubation for 20 minutes while gently stirring the same. The stained cells were washed with distilled water until a clean background is observed. For assessment using a colorimeter, the crystal violet dye was extracted with 1% SDS/PBS and absorbance was measured at 570 nm wavelength by EMax PLUS microplate reader (Molecular Device, USA).
The monolayer cultured or sphere cultured SKOV3ip1 cells were treated with the tyrosine kinase inhibitor and paclitaxel for 72 hours, the cell viability was determined by the crystal violet colorimeter, and results thereof are shown in FIG. 3.

The test system of series [7] is phosphorylated AKT and XIAP in SKOV3-TR ovarian cancer cells. Kind of series: immunostaining of AKT down-signal mechanism. To be noted: BGJ398 treatment, paclitaxel alone or in combination with BGJ398 (FIG. 27). The method, then:
FIG. 27 illustrates results of identifying whether there is expression of AKT, phosphorylated AKT, BAD, phosphorylated BAD, XIAP, CASP9, p42/44 and/or phosphorylated p42/44, in order to determine AKT down-signal mechanism in relation to cell survival and cell apoptosis in the cells when paclitaxel alone or in combination with BGJ398 was administered to SKOV3-TR ovarian cancer cells. […] The reason of this fact is considered because a level of XIAP expression in the cells is decreased thus to improve paclitaxel sensitivity.

In series [8] the test system is AKT phosphorylation and PARP cleavage in SKOV3-TR ovarian cancer cells. Kind of series: PathScan Intracellular Signaling Array Kit. To be noted: BGJ398 in combination with paclitaxel (FIG. 26).

On to `CCN1CCN(c2ccc(Nc3cc(N(C)C(=O)Nc4c(Cl)c(OC)cc(OC)c4Cl)ncn3)cc2)CC1` [BGJ398, 3-(2,6-dichloro-3,5-dimethoxyphenyl)-1-[6-[4-(4-ethylpiperazin-1yl)anilino]pyrimidin-4-yl]-1-methylurea], for which the “cytotoxicity, cell sphere morphology” value in series [1] (3D sphere culture HEC1B, BGJ398 alone or in combination with paclitaxel) is reported as “cell spheres are collapsed”; in series [2] (3D sphere culture Hs578T, BGJ398 alone or in combination with paclitaxel) it was “cell spheres are collapsed”. Further, the cell apoptosis result in series [1] (sphere cultured HEC1B, BGJ398 alone) is on record as “cell apoptosis can be found”; in series [2] (sphere cultured Hs578T, BGJ398 alone), “cell apoptosis can be found”; in series [3] (Hs578T, BGJ398 in combination with paclitaxel (FIGS. 13 and 14)), “cell apoptosis is further increased”; in series [4] (HEC1B, BGJ398 in combination with paclitaxel (FIGS. 10 and 11)), “cell apoptosis is further increased”. For the same molecule, the “effect on anticancer effects of paclitaxel” value is given as “enhance anticancer effects of paclitaxel” in series [3] (2D monolayer Hs578T, BGJ398 in combination with paclitaxel (FIG. 13)) and “enhance anticancer effects of paclitaxel” in series [4] (2D monolayer HEC1B, BGJ398 in combination with paclitaxel (FIG. 10)). Also, the “increase of Sub-G1 cells” value in series [5] (2.5 μM BGJ398 in combination with 50 nM paclitaxel, compared to 50 nM paclitaxel alone (FIG. 23)) is listed as “about 2.5 times”. The “apoptotic cells (region below G1, Sub-G1)” value in series [5] (BGJ398 in combination with paclitaxel (FIG. 22)) was “the number of apoptotic cells is increased”. The cell viability result in series [6] (monolayer cultured SKOV3ip1, 72 hours, different concentrations, crystal violet colorimeter (FIG. 3)) was “not effected”. The cytotoxicity result in series [6] (monolayer cultured SKOV3ip1, BGJ398 concentration increased to 5 μM) was “cytotoxicity was not revealed”. For the same molecule, the XIAP expression entry in series [7] is listed as “XIAP expression is reduced”. Further, the “level of phosphorylated AKT” value in series [7] is given as “significantly decreased”. For the same molecule, the “cleaved PARP” value in series [8] is “increasing the cleaved PARP”. For the same molecule, the “phosphorylation of AKT at serine 473” value in series [8] is given as “phosphoylation of AKT at serine 473 is reduced”.
